Reference: article PMC5917092, “Fine-Tuned Enzymatic Hydrolysis of Organosolv Pretreated Forest Materials for the Efficient Production of Cellobiose” (Frontiers in Chemistry, 2018)
Entries after “also recorded” stand apart in the source; their conditions may differ.

Tests used:
[1] = target: TtCBH7 (Thermothelomyces thermophilus, UniProt G2Q665); test: Kinetics and inhibition of TtCBH7 by mono/oligosaccharides with MUG2 as substrate (Lineweaver-Burk); type: biochemical, Thermothelomyces thermophila; settings: for Kmapp: TtCBH7, substrate MUG2, in the presence of 10 mM inhibitor; for Inhibitory effect on TtCBH7 (in words): activity on MUG2, inhibitor 5 and 10 mM
Protocol: (§1) The release of methyl-umbelliferyl was followed by measuring the absorbance at A350. The inhibition of CBHs by specific mono/oligosaccharides was determined by estimating the enzymatic activity on MUG2 in presence of different inhibitor concentrations (5 and 10 mM). Kinetic analysis of inhibition was carried out on xylose (X1), xylobiose (X2), xylotriose (X3), mannose (M1), mannobiose (M2), mannotriose (M3), glucose (G1), cellobiose (G2), and xylosyl-cellobiose (XC). Lineweaver–Burk plots were drawn to determine Km, Vmax, and inhibition constant (Ki) values.
Figure 4 Inhibition studies of TtCBH7 by glucan, xylan, and mannan mono- and oligo-saccharides. Absorbance at 355 nm was measured after 30 min incubation with MUG2 at concentrations ranging from 0.1 to 2 mM, at 45°C, pH 5.0.

[2] = test system: TtCBH6; test: Kinetics and inhibition of TtCBH6 by mono/oligosaccharides with MUG2 as substrate (Lineweaver-Burk); type: biochemical, Thermothelomyces thermophila; settings: for Inhibitory effect on TtCBH6 (in words): activity on MUG2, inhibitor 5 and 10 mM
Protocol: as §1, with “[…].” for “A350.”, “Lineweaver-Burk” for “Lineweaver–Burk”

[3] = TtCBH7, substrate MUG2, inhibitor 5 mM (Km app)
[4] = TtCBH7, substrate MUG2, inhibitor 10 mM
[5] = TtCBH7, substrate MUG2, inhibitor 10 mM (Km app)
[6] = TtCBH6, substrate MUG2, inhibitor 5 mM (Km app)
[7] = TtCBH6, substrate MUG2, inhibitor 10 mM (Km app)

Chain of TtCBH7 (G2Q665 entry or part of it): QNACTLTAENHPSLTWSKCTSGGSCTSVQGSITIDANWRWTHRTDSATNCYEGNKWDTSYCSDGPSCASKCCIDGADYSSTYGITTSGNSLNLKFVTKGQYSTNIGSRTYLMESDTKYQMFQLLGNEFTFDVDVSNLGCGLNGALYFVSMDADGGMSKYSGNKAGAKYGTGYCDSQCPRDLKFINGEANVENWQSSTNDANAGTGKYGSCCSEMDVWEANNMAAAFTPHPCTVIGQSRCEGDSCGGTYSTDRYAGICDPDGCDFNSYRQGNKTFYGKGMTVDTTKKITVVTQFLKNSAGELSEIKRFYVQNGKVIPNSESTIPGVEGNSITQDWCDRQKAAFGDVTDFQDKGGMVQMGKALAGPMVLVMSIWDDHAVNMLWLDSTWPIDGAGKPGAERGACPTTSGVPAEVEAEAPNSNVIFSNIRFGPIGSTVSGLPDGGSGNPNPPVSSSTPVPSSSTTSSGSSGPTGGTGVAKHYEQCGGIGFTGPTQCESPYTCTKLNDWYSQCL

Row | Compound | Kmapp [1] [mM] | Ki ([1]; TtCBH7, substrate MUG2, inhibitor 5 mM) [mM] | Km/Km^app [1, 3] [µM] | Ki [1, 4] [mM] | Km/Km^app [1, 5] [µM] | Inhibitory effect on TtCBH7 (in words) [1] | Km/Km^app [2, 6] [µM] | Km/Km^app [2, 7] [µM] | Inhibitory effect on TtCBH6 (in words) [2] | Km ([1]; TtCBH7, absence of any inhibitor) [µM] | Km/Km^app ([1]; TtCBH7, substrate MUG2, no inhibitor (Km), pH 5.0, 45°C) [µM] | Km/Km^app ([2]; TtCBH6, substrate MUG2, no inhibitor (Km), pH 5.0, 45°C) [µM]
1 | O=C[C@H](O)[C@@H](O)[C@H](O[C@@H]1O[C@H](CO)[C@@H](O)[C@H](O)[C@H]1O)[C@H](O)CO [Cellobiose, cellobiose] | 6.54 | 1.43 | 4.04 | 1.59 | 6.54 | strong inhibitor; also recorded: strongly inhibited | 0.40 | 0.45 | no inhibitory effect |  |  | 
2 | OC[C@H]1OC(O)[C@H](O)[C@@H](O)[C@@H]1O (some centres unmarked) [Glucose, glucose] | 1.58 |  | 1.00 | 13.2 | 1.58 |  | 0.39 | 0.41 | no inhibitory effect |  |  | 
3 | Cc1cc(=O)oc2cc(O[C@@H]3O[C@H](CO)[C@@H](O[C@@H]4O[C@H](CO)[C@@H](O)[C@H](O)[C@H]4O)[C@H](O)[C@H]3O)ccc12 [MUG2, 4-methyl-umbelliferyl-β-cellobiose] |  |  |  |  |  |  |  |  |  | 900 | 0.90 | 0.42
4 | OC[C@H]1O[C@@H](O[C@H]2[C@H](O)[C@H](O)C(O)O[C@@H]2CO)[C@@H](O)[C@@H](O)[C@@H]1O (some centres unmarked) [Mannobiose, mannobiose] | 1.04 |  | 0.91 |  | 1.04 |  | 0.38 | 0.35 |  |  |  | 
5 | OC1OC[C@@H](O[C@@H]2OC[C@@H](O)[C@H](O)[C@H]2O)[C@H](O)[C@H]1O (some centres unmarked) [Xylobiose, xylobiose] | 1.17 |  | 0.81 | 33.3 | 1.17 |  | 0.44 | 0.41 |  |  |  | 
6 | OC1OC[C@@H](O[C@@H]2OC[C@@H](O[C@@H]3OC[C@@H](O)[C@H](O)[C@H]3O)[C@H](O)[C@H]2O)[C@H](O)[C@H]1O (some centres unmarked) [Xylotriose, xylotriose] |  |  | 0.77 |  | 0.95 | very weak inhibitory effect | 0.42 | 0.46 |  |  |  | 
7 | mannotriose |  |  | 0.88 |  | 0.98 | very weak inhibitory effect | 0.41 | 0.44 |  |  |  | 
8 | xylosyl-cellobiose |  |  | 0.99 |  | 1.01 |  | 0.43 | 0.48 |  |  |  | 
